The results in this text go back to PMC10916382, “Repurposing screen identifies novel candidates for broad-spectrum coronavirus antivirals and druggable host targets” (Antimicrobial Agents and Chemotherapy, 2024).

The viability is a read-out of living cells in per cent, often relative to untreated cells. As usually defined, the IC50 is the concentration needed to halve the response being measured.

The nature of series [1]: in vitro. To be noted: for viability: Anti-SARS-CoV-2 screening on Calu-3 cells: viability [% of control], Calu-3 cells.
Series [2] in a line: in vitro. To be noted: human.
A further series deals with HCoV-229E. Description: microbe, parasite or virus in culture. The series is classed as cell-based, Homo sapiens sapiens. Conditions: Human coronavirus 229E, Huh7.5, read-out: IC50 (µM), HCoV 229E.
For a further series, the system named is SARS-CoV-2. Conditions: Calu-3 cells, immunofluorescence imaging.
The test system of the next series is Huh-7.5/F-Luc cells. Conditions: Huh-7.5/F-Luc cells; maximum tested dose 5 µM.

Turning to `Oc1ccc2c(c1)OC[C@@H](c1ccccc1)[C@H]2c1ccc(OCCN2CCCC2)cc1` [RFM-011-457-8], the viability in the series “in vitro [1]” was determined as 101%. The viability at 5 µM in the series “in vitro [2]” amounted to 144%. In the series with HCoV-229E, the IC50 came to 1.5 µM. For the same molecule, in the series with SARS-CoV-2, the “Anti-SARS-CoV-2 screening on Calu-3 cells: intracellular SARS-CoV-2 infection measured via immunofluorescence imaging [% of control]” value (shortened to “Anti-SARS-CoV-2 screening … [% of control]”) is reported as 113.89 % of control. Besides, in the series on Huh-7.5/F-Luc cells, the “CC50 (µM)” value is “greater than maximum tested dose”.
Take `CC(OCCN1CCCCCC1)(c1ccccc1)c1ccc(Cl)cc1` (stereo not drawn) [RFM-000-944-9]: the viability in “in vitro [1]” was determined as 95.3%. In addition, in “in vitro [2]”, the viability at 5 µM was 146%. Besides, in the series on HCoV-229E, the IC50 was found to be 1.87 µM. Further, the “Anti-SARS-CoV-2 screening … [% of control]” value in the series on SARS-CoV-2 is recorded as 104.31 % of control. Besides, the “CC50 (µM)” value in the series with Huh-7.5/F-Luc cells is on record as “greater than maximum tested dose”.
For `OCCN1CCN(CCC=C2c3ccccc3Sc3ccc(C(F)(F)F)cc32)CC1` [RFM-000-079-3], the viability at 48 h, 5 µM in “in vitro [1]” turned out to be 105%. The viability at 5 µM in the series “in vitro [2]” turned out to be 145%. The IC50 in the series on HCoV-229E is 1.73 µM. For the same molecule, in the series with SARS-CoV-2, the “Anti-SARS-CoV-2 screening … [% of control]” value is listed as 104.52 % of control. In the series on Huh-7.5/F-Luc cells, the “CC50 (µM)” value is “greater than maximum tested dose”.
Consider `CC(C)NCC(O)COc1ccc(CC(=O)OCCC23CC4CC(CC(C4)C2)C3)cc1` (stereo not drawn) [RFM-010-929-5], for which the viability in the series “in vitro [1]” is 90.2%. The viability at 5 µM in “in vitro [2]” turned out to be 122%. For the same molecule, the IC50 in the series with HCoV-229E came out at 1.76 µM. In addition, in the series with SARS-CoV-2, the “Anti-SARS-CoV-2 screening … [% of control]” value is recorded as 113.56 % of control. Further, in the series with Huh-7.5/F-Luc cells, the “CC50 (µM)” value is “greater than maximum tested dose”.
Taken in the same sequence, the figures for `CN(C)CCOC(c1ccccc1)c1ccc(Br)cc1` (stereo not drawn) [RFM-010-846-3] were 92.2%, 157%, 2.14 µM, 102.09 % of control and “greater than maximum tested dose”.
As to `Cc1c(NCCN2CCCC2)cc(C(=O)C(C)(C)C)cc1N1CCN(c2ncnc3[nH]nc(Br)c23)CC1` [RFM-011-974-4], the viability in the series “in vitro [1]” was 104%. The viability at 5 µM in the series “in vitro [2]” stood at 124%. For the same molecule, the IC50 in the series with HCoV-229E came out at 1.4 µM. In addition, the “Anti-SARS-CoV-2 screening … [% of control]” value with SARS-CoV-2 is given as 103.98 % of control. The “CC50 (µM)” value with Huh-7.5/F-Luc cells is “greater than maximum tested dose”.
`CCN(CC)CCOc1ccc(-c2nc3cc(Cl)ccc3s2)cc1` [RFM-005-834-4]: the viability in the series “in vitro [1]” was 88.8%. For the same molecule, in the series “in vitro [2]”, the viability at 5 µM turned out to be 91.6%. For the same molecule, in the series with HCoV-229E, the IC50 was 1.51 µM. Further, the “Anti-SARS-CoV-2 screening … [% of control]” value with SARS-CoV-2 is reported as 104.24 % of control. The “CC50 (µM)” value with Huh-7.5/F-Luc cells is reported as “greater than maximum tested dose”.
The matching figures for `Oc1ccc(Nc2ccnc3cc(Cl)ccc23)cc1CN1CCCC1` [RFM-010-841-8]: 109%, 165%, 1.41 µM, 102.22 % of control and “greater than maximum tested dose”.
The matching figures for `CCCCCCOC(=O)NC(=N)c1ccc(NCc2nc3cc(C(=O)N(CCC(=O)OCC)c4ccccn4)ccc3n2C)cc1` [RFM-002-982-3]: 106%, 126%, 3.13 µM, 100.41 % of control and “greater than maximum tested dose”.
For the molecule `CN1C[C@H](CNC(=O)OCc2ccccc2)C[C@@H]2c3cccc4c3c(cn4C)C[C@H]21` [RFM-005-941-6], the viability at 48 h, 5 µM in the series “in vitro [1]” came to 117%. The viability at 5 µM in the series “in vitro [2]” worked out at 163%. In the series on HCoV-229E, the IC50 is 1.26 µM. In the series on SARS-CoV-2, the “Anti-SARS-CoV-2 screening … [% of control]” value is 125.57 % of control. For the same molecule, the “CC50 (µM)” value in the series on Huh-7.5/F-Luc cells is “greater than maximum tested dose”.
The matching figures for `c1ccc2c(c1)Sc1ccccc1N2CC1CN2CCC1CC2` (stereo not drawn) [RFM-000-842-4]: 110%, 166%, 1.6 µM, 112.52 % of control and “greater than maximum tested dose”.
As for `CN(C)CC(O)COc1ccccc1C1CC2CCC1C2` (stereo not drawn) [RFM-012-243-0], the viability in “in vitro [1]” amounted to 95.3%. Further, the viability at 5 µM in the series “in vitro [2]” is 142%. Further, the IC50 in the series with HCoV-229E was 1.84 µM. The “Anti-SARS-CoV-2 screening … [% of control]” value with SARS-CoV-2 is recorded as 114.97 % of control. For the same molecule, in the series on Huh-7.5/F-Luc cells, the “CC50 (µM)” value was “greater than maximum tested dose”.
